Literature values as cited in patent US20030157192A1, “Low temperature disinfectant/sterilant for medical devices and topical applications” (Healthpoint, Ltd., priority 2002, published 2003).

Tests used:
[1] = test system: mouse skin; settings: tested on mouse skin
[2] = room temperature; low pH

Row | Structure (SMILES) | tumor promotion [1] | minimum time required to pass the AOAC Sporicidal Test [2]
1 | CC(=O)OO [Peracetic acid] | tumor-promoting agent | –
2 | OO [6% hydrogen peroxide, hydrogen peroxide] | – | ≥ 6 h
